# From patent US8802700B2 (Vertex Pharmaceuticals Incorporated, priority 2010, dated 2014)
# Target: T1, ΔF508-CFTR (Homo sapiens, UniProt P13569, DEL508-508)
# T1 construct: expressed in transfected cells
# Assay: Membrane potential optical assay (FRET voltage-sensor dyes, VIPR), identification of potentiator compounds
# Type: cell-based
# Conditions: Table 3; assay not given
# Outline: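 NIH3T3 mouse fibroblasts stably expressing ΔF508-CFTR, cultured 24 h at 27 °C, were loaded with FRET voltage dyes CC2-DMPE and DiSBAC2(3). Double-addition format: first addition of Cl⁻-free (gluconate) medium with or without compound; membrane-potential change read as fluorescence on VIPR II.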
# T1 sequence (P13569 with tags, fused parts or gaps DEL508-508): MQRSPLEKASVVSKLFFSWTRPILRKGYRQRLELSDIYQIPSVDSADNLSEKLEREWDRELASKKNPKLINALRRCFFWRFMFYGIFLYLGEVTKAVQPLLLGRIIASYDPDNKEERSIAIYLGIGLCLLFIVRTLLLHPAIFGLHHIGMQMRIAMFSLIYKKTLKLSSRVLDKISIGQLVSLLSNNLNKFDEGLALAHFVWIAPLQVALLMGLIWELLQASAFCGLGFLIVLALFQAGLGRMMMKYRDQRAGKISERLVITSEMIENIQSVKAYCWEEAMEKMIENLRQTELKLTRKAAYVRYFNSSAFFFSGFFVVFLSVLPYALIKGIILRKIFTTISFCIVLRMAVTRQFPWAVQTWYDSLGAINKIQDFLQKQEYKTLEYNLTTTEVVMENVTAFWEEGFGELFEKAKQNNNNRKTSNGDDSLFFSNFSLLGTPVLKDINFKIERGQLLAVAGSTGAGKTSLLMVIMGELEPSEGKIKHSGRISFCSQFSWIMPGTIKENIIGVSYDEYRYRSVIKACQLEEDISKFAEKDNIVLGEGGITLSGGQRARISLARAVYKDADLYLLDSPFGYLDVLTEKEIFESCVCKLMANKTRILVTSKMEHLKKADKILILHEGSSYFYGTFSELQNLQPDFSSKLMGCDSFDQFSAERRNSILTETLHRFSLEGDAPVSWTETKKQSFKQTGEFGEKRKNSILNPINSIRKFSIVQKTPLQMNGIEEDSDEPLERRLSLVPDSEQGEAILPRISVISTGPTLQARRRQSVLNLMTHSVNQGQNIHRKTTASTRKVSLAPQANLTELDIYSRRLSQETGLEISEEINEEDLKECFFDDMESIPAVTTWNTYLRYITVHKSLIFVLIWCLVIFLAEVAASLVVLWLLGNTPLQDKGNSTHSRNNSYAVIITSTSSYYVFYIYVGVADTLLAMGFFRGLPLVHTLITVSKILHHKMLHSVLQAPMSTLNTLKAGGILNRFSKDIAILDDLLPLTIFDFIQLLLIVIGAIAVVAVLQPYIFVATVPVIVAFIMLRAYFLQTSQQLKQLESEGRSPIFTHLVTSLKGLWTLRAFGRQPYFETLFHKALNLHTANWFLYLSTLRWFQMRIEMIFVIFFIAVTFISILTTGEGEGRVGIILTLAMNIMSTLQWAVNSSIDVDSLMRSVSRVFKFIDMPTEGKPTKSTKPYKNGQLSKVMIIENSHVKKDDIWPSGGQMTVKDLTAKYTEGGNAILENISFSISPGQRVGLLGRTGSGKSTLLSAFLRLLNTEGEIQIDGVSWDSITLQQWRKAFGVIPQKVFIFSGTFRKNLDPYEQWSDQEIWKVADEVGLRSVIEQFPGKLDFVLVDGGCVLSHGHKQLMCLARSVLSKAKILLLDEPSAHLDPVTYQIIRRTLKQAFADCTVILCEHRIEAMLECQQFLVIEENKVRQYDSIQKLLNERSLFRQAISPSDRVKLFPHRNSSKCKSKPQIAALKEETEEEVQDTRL
row,EC50,SMILES
1,< 10 µM,"CCOc1ccccc1-c1ccccc1NC(=O)c1c[nH]c2ccccc2c1=O [Compound 344, N-[2-(2-ethoxyphenyl)phenyl]-4-oxo-1H-quinoline-3-carboxamide]"
2,< 10 µM,"CCc1ccc(NC(=O)c2c[nH]c3ccccc3c2=O)cc1 [Compound 463, N-(4-ethylphenyl)-4-oxo-1H-quinoline-3-carboxamide]"
3,< 10 µM,"O=C(Nc1ccccc1-c1ccoc1)c1c[nH]c2ccccc2c1=O [Compound 123, N-[2-(3-furyl)phenyl]-4-oxo-1H-quinoline-3-carboxamide]"
4,< 10 µM,"CCCc1ccc(NC(=O)c2c[nH]c3ccccc3c2=O)cc1 [Compound 226, 4-oxo-N-(4-propylphenyl)-1H-quinoline-3-carboxamide]"

# Same assay, conditions: Table 3; assay not given; read-out: % Activity (% Efficacy, relative efficacy)
row,Emax,SMILES
1,25 to 100%,"CCOc1ccccc1-c1ccccc1NC(=O)c1c[nH]c2ccccc2c1=O [Compound 344, N-[2-(2-ethoxyphenyl)phenyl]-4-oxo-1H-quinoline-3-carboxamide]"
2,25 to 100%,"CC(C)(C)c1cc2cc[nH]c2cc1NC(=O)c1c[nH]c2ccccc2c1=O [Compound 381, 4-oxo-N-(5-tert-butyl-1H-indol-6-yl)-1H-quinoline-3-carboxamide]"
3,25 to 100%,"Cc1ccc2[nH]cc(C(=O)Nc3ccc(N4CCCC4C)cc3C(F)(F)F)c(=O)c2c1 (centres unmarked) [Compound 503, 6-methyl-N-[4-(2-methylpyrrolidin-1-yl)-2-(trifluoromethyl)phenyl]-4-oxo-1H-quinoline-3-carboxamide]"
4,25 to 100%,"COc1ccc2c(=O)c(C(=O)Nc3cc(O)c(C(C)(C)C)cc3C(C)(C)C)c[nH]c2c1 [Compound 583, N-(5-hydroxy-2,4-ditert-butyl-phenyl)-7-methoxy-4-oxo-1H-quinoline-3-carboxamide]"
5,> 100%,"CC(C)c1cc(C(F)(F)F)c(NC(=O)c2c[nH]c3ccccc3c2=O)cc1O [Compound 497, N-[5-hydroxy-4-isopropyl-2-(trifluoromethyl)phenyl]-4-oxo-1H-quinoline-3-carboxamide]"
6,25 to 100%,"CCc1ccc(NC(=O)c2c[nH]c3ccccc3c2=O)cc1 [Compound 463, N-(4-ethylphenyl)-4-oxo-1H-quinoline-3-carboxamide]"
7,25 to 100%,"COc1ccc(-c2ccccc2NC(=O)c2c[nH]c3ccccc3c2=O)cc1OC [Compound 436, N-[2-(3,4-dimethoxyphenyl)phenyl]-4-oxo-1H-quinoline-3-carboxamide]"
8,25 to 100%,"O=C(Nc1ccccc1-c1ccc(C(F)(F)F)cc1)c1c[nH]c2ccccc2c1=O [Compound 366, 4-oxo-N-[2-[4-(trifluoromethyl)phenyl]phenyl]-1H-quinoline-3-carboxamide]"
9,25 to 100%,"CC(C)(C)OC(=O)N1CCc2c(cccc2NC(=O)c2c[nH]c3ccccc3c2=O)C1 [Compound 427, 5-[(4-oxo-1H-quinolin-3-yl)carbonylamino]-1,2,3,4-tetrahydroisoquinoline-2-carboxylic acid tert-butyl ester]"
10,25 to 100%,"O=C(Nc1ccc(CO)cc1)c1c[nH]c2ccccc2c1=O [Compound 209, N-[4-(hydroxymethyl)phenyl]-4-oxo-1H-quinoline-3-carboxamide]"
11,25 to 100%,"O=C(Nc1cc(O)c(C23CC4CC(CC(C4)C2)C3)cc1F)c1cnc2ccccc2c1O [Compound 395, N-[4-(1-adamantyl)-2-fluoro-5-hydroxy-phenyl]-4-hydroxy-quinoline-3-carboxamide]"
12,25 to 100%,"O=C(Nc1cccc(Cl)c1)c1c[nH]c2ccccc2c1=O [Compound 370, N-(3-chlorophenyl)-4-oxo-1H-quinoline-3-carboxamide]"
13,25 to 100%,"O=C(Nc1ccccc1-c1ccoc1)c1c[nH]c2ccccc2c1=O [Compound 123, N-[2-(3-furyl)phenyl]-4-oxo-1H-quinoline-3-carboxamide]"
14,25 to 100%,"N#Cc1c(Cl)cccc1NC(=O)c1c[nH]c2ccccc2c1=O [Compound 222, N-(3-chloro-2-cyano-phenyl)-4-oxo-1H-quinoline-3-carboxamide]"
15,25 to 100%,"Cc1cc(C(C)(C)C)c(O)cc1NC(=O)c1c[nH]c2cccc(O)c2c1=O [Compound 588, 5-hydroxy-N-(5-hydroxy-2-methyl-4-tert-butyl-phenyl)-4-oxo-1H-quinoline-3-carboxamide]"
16,25 to 100%,"Cc1ccc(N)cc1NC(=O)c1c[nH]c2ccccc2c1=O [Compound 94, N-(5-Amino-2-methyl-phenyl)-4-oxo-1H-quinoline-3-carboxamide]"
17,25 to 100%,"CCOC(=O)Nc1cc(NC(=O)c2c[nH]c3ccccc3c2=O)ccc1C [Compound 141, [2-methyl-5-[(4-oxo-1H-quinolin-3-yl)carbonylamino]phenyl]aminoformic acid ethyl ester]"
18,25 to 100%,"Cc1cccc(-c2ccccc2NC(=O)c2c[nH]c3ccccc3c2=O)c1 [Compound 52, N-[2-(m-tolyl)phenyl]-4-oxo-1H-quinoline-3-carboxamide]"
19,25 to 100%,"CC(C)n1cc(C(=O)Nc2ccccc2)c(=O)c2ccccc21 [Compound 29, 1-isopropyl-4-oxo-N-phenyl-1H-quinoline-3-carboxamide]"
20,25 to 100%,"CC(C)c1ccc(NC(=O)c2c[nH]c3cc(F)c(F)cc3c2=O)c(C(F)(F)F)c1 [Compound 589, 6,7-difluoro-N-[4-isopropyl-2-(trifluoromethyl)phenyl]-4-oxo-1H-quinoline-3-carboxamide]"
21,25 to 100%,"CCc1cc(C(C)(C)C)c(O)cc1NC(=O)c1c[nH]c2ccccc2c1=O [Compound 659, N-(2-ethyl-5-hydroxy-4-tert-butyl-phenyl)-4-oxo-1H-quinoline-3-carboxamide]"

row,Emax,SMILES
1,25 to 100%,"CC(C)(C)c1ccc(NC(=O)c2c[nH]c3ccccc3c2=O)cc1O [Compound 428, N-(3-hydroxy-4-tert-butyl-phenyl)-4-oxo-1H-quinoline-3-carboxamide]"
2,25 to 100%,"O=C(Nc1cc(N2CCCC2)cc(C(F)(F)F)c1)c1c[nH]c2ccccc2c1=O [Compound 593, 4-oxo-N-[3-pyrrolidin-1-yl-5-(trifluoromethyl)phenyl]-1H-quinoline-3-carboxamide]"
3,25 to 100%,"CC1(C)CNc2cc(NC(=O)c3c[nH]c4ccccc4c3=O)ccc21 [Compound 386, N-(3,3-dimethylindolin-6-yl)-4-oxo-1H-quinoline-3-carboxamide]"
4,25 to 100%,"CCCc1ccc(NC(=O)c2c[nH]c3ccccc3c2=O)cc1 [Compound 226, 4-oxo-N-(4-propylphenyl)-1H-quinoline-3-carboxamide]"
5,25 to 100%,"CCOc1ccccc1-c1ccc(NC(=O)OC(C)(C)C)cc1NC(=O)c1c[nH]c2ccccc2c1=O [Compound 114, [4-(2-ethoxyphenyl)-3-[(4-oxo-1H-quinolin-3-yl)carbonylamino]phenyl]aminoformic acid tert-butyl ester]"
6,25 to 100%,"CCCc1ccccc1NC(=O)c1c[nH]c2ccccc2c1=O [Compound 16, 4-oxo-N-(2-propylphenyl)-1H-quinoline-3-carboxamide]"
7,25 to 100%,"CCCc1ccc(NC(=O)c2c[nH]c3ccccc3c2=O)cc1NS(C)(=O)=O [Compound 340, N-(3-methylsulfonylamino-4-propyl-phenyl)-4-oxo-1H-quinoline-3-carboxamide]"
8,< 25%,"Cc1cccc2c(=O)c(C(=O)Nc3ccc(C(C)C)cc3C(F)(F)F)c[nH]c12 [Compound 637, N-[4-isopropyl-2-(trifluoromethyl)phenyl]-8-methyl-4-oxo-1H-quinoline-3-carboxamide]"
9,25 to 100%,"CC(C)c1c[nH]c2cc(NC(=O)c3c[nH]c4ccccc4c3=O)ccc12 [Compound 357, N-(3-isopropyl-1H-indol-6-yl)-4-oxo-1H-quinoline-3-carboxamide]"
10,25 to 100%,"CCOc1ccc2ncc(C(=O)Nc3ccc4cc[nH]c4c3)c(O)c2c1 [Compound 112, 6-ethoxy-4-hydroxy-N-(1H-indol-6-yl)quinoline-3-carboxamide]"
11,25 to 100%,"CC(C)(C)c1ccc(NC(=O)c2c[nH]c3ccccc3c2=O)cc1 [Compound 448, 4-oxo-N-(4-tert-butylphenyl)-1H-quinoline-3-carboxamide]"
12,25 to 100%,"Cc1ccc(NC(=O)c2c[nH]c3ccccc3c2=O)cc1N [Compound 167, N-(3-amino-4-methyl-phenyl)-4-oxo-1H-quinoline-3-carboxamide]"
13,< 25%,"CCOc1cccc2c(=O)c(C(=O)Nc3cc4[nH]ccc4cc3C(C)(C)C)c[nH]c12 [Compound 641, 8-ethoxy-4-oxo-N-(5-tert-butyl-1H-indol-6-yl)-1H-quinoline-3-carboxamide]"
14,> 100%,"CNc1cccc2[nH]cc(C(=O)Nc3cc(O)c(C(C)(C)C)cc3C(C)(C)C)c(=O)c12 [Compound 542, N-(5-hydroxy-2,4-ditert-butyl-phenyl)-5-methylamino-4-oxo-1H-quinoline-3-carboxamide]"
15,25 to 100%,"Cc1cccc2[nH]cc(C(=O)Nc3ccc(N4[C@H](C)CC[C@H]4C)cc3C(F)(F)F)c(=O)c12 [Compound 539, N-(4-((2R,5R)-2,5-dimethylpyrrolidin-1-yl)-2-(trifluoromethyl)phenyl)-5-methyl-4-oxo-1,4-dihydroquinoline-3-carboxamide]"
16,25 to 100%,"O=C(Nc1ccccc1-c1ccc(Cl)cc1)c1c[nH]c2ccccc2c1=O [Compound 424, N-[2-(4-chlorophenyl)phenyl]-4-oxo-1H-quinoline-3-carboxamide]"
17,25 to 100%,"Cc1ccc(-c2ccccc2NC(=O)c2c[nH]c3ccccc3c2=O)o1 [Compound 311, N-[2-(5-methyl-2-furyl)phenyl]-4-oxo-1H-quinoline-3-carboxamide]"
18,25 to 100%,"N#CCc1ccccc1NC(=O)c1c[nH]c2ccccc2c1=O [Compound 308, N-[2-(cyanomethyl)phenyl]-4-oxo-1H-quinoline-3-carboxamide]"
19,25 to 100%,"CC(C)(C)OC(=O)[C@@H]1CCCN1c1ccc(NC(=O)c2c[nH]c3ccccc3c2=O)c(C(F)(F)F)c1 [Compound 629, (S)-tert-butyl 1-(4-(4-oxo-1,4-dihydroquinoline-3-carboxamido)-3-(trifluoromethyl)phenyl)pyrrolidine-2-carboxylate]"
20,25 to 100%,"CCOC(=O)NC1CCCc2ccc(NC(=O)c3c[nH]c4ccccc4c3=O)cc21 (centres unmarked) [Compound 482, [7-[(4-Oxo-1H-quinolin-3-yl)carbonylamino]tetralin-1-yl]aminoformic acid ethyl ester]"
21,25 to 100%,"COc1ccccc1NC(=O)c1c[nH]c2ccccc2c1=O [Compound 80, N-(2-methoxyphenyl)-4-oxo-1H-quinoline-3-carboxamide]"

row,SMILES,Emax
1,"Cc1cccc2[nH]cc(C(=O)Nc3ccc(OC4CCCC4)cc3C(F)(F)F)c(=O)c12 [Compound 595, N-[4-cyclopentoxy-2-(trifluoromethyl)phenyl]-5-methyl-4-oxo-1H-quinoline-3-carboxamide]",25 to 100%
